These are literature values, as cited in patent publication US5972966A, “Inhibitors of farnesyl-protein transferase” (Merck & Co., Inc., priority 1997, dated 1999).

Data set [1] deals with farnesyl-protein transferase. Conditions: by inhibiting HMG-CoA reductase.
In another data set the test system is Ras processing in cells. The note with it: by inhibiting the rate-limiting step in the isoprenoid biosynthetic pathway.

In the case of `CC[C@H](C)C(=O)O[C@H]1CCC=C2C=C[C@H](C)[C@H](CC[C@@H]3C[C@@H](O)CC(=O)O3)[C@H]21` [compactin], in data set [1], the “Indirect inhibition of farnesyl-protein transferase in vivo” value is listed as “Indirect inhibition”.

For `CC[C@H](C)C(=O)O[C@H]1C[C@@H](C)C=C2C=C[C@H](C)[C@H](CC[C@@H]3C[C@@H](O)CC(=O)O3)[C@H]21` [lovastatin], the “blocking of Ras processing in cells” value in the data set on Ras processing in cells was “blocks Ras processing in cells”. Moreover, in data set [1], the “Indirect inhibition of farnesyl-protein transferase in vivo” value is reported as “Indirect inhibition”.
